The record followed here is ChEMBL document CHEMBL1141323, “Iriomoteolides-1b and -1c, 20-membered macrolides from a marine dinoflagellate Amphidinium species” (J Nat Prod, 2007).

In brackets after ≈: the same amount, converted by molar mass.

One may read the IC50 as the midpoint of a concentration-inhibition curve. A higher IC50 goes with weaker potency.

The nature of experiment [1]: Cytotoxicity against human DG75 cells. The experiment is classed as cell-based. The conditions noted are these: DG-75.
In a further experiment the test system is Raji (Homo sapiens). Put plainly: Cytotoxicity against EBV-infected Raji cells. The conditions noted are these: human gammaherpesvirus 4, Raji.

Consider `C=C1C[C@@H]2C/C=C/[C@H](O)[C@H](C)/C(C)=C\C(=O)O[C@H](C[C@H](C)[C@H](C)O)[C@@H](C)C/C=C/[C@@](C)(O)[C@](O)(C1)O2`, for which the values for the IC50 (in experiment [1]; in the experiment on Raji (Homo sapiens)) were 2 ng/mL (≈ 3.95 nM) and 4 ng/mL (≈ 7.89 nM), respectively.

In the case of `C/C1=C/C(=O)[C@](C)(O)/C=C/C[C@H](C)[C@@H](C[C@H](C)[C@H](C)O)OC(=O)/C=C(/C)[C@@H](C)[C@@H](O)/C=C/C[C@H](O)C1`, the IC50 in experiment [1] amounted to 900 ng/mL (≈ 1780 nM).

Consider `C=C1C[C@@H]2C/C=C/[C@H](O)[C@H](C)/C(C)=C\C(=O)O[C@H](CCC(C)C(C)O)[C@@H](C)C/C=C/[C@@](C)(O)[C@](O)(C1)O2` (stereo not given in full), for which the IC50 is 2 ng/mL (≈ 3.84 nM) in experiment [1] and 4 ng/mL (≈ 7.68 nM) in the experiment with Raji (Homo sapiens).
